Patent EP3797781A1, “USE OF EC-7072 AND SYNERGIC COMPOSITIONS THEREOF IN TREATMENT OF CHRONIC LYMPHOCYTIC LEUKEMIA” (priority 2019, dated 2021)

Tested on: leukemia cells
Experiment: Apoptosis of leukemia cells by Annexin V/PI staining
Assay type: cell-based, human
Details: 0 - 400 nM, 24 hours; PBMCs from patients with CLL (n = 6)
Method: Cell viability and apoptosis were evaluated by double-staining with the mitochondrial inner transmembrane potential (ΔΨm)-sensitive dye DiOC6(3) (3,3'-dihexyloxacarbocyanine iodide; Sigma-Aldrich) and the exclusion dye propidium iodide (PI; Immunostep), allowing identification of apoptotic [DiOC6(3)^low PI^-] and dead [PI^+] cells as per Proc. Natl. Acad. Sci. U.S.A. (2014) 111(8):3020-3025 and Methods Mol. Biol. (2016) 1419:1-16. Briefly, PBMCs were resuspended in culture medium containing 20 nM DiOC6(3) and incubated for 30 minutes at 37 °C. Then, PI (1 µg/mL) was added and cells were further incubated for 10 minutes at room temperature (RT). Cells were analyzed by flow cytometry considering DiOC6(3)^+PI^- cells as viable. In some experiments, apoptosis was evaluated by staining with Annexin V/PI. […]
The induction of caspase-dependent apoptosis on primary CLL cells by EC-7072 was assessed by: • (i) incubating PBMCs isolated from patients with CLL (n = 6) following treatment with increasing concentrations of EC-7072 (0 - 400 nM) for 24 hours. Apoptosis of leukemia cells was evaluated by cytofluorometric assessment of Annexin V/PI staining to obtain percentages of apoptotic [Annexin V^+ PI^-] and dead [PI^+] cells (Figure 3A); • (ii) incubating PBMCs and T cells isolated from patients with CLL (n = 3) following treatment with EC-7072 (200 nM) for 24 hours. […]

SMILES: CO[C@@H]([C@@H]1Cc2cc3cc(O[C@H]4C[C@@H](O[C@H]5C[C@@H](O)[C@H](O)[C@@H](C)O5)[C@H](O)[C@@H](C)O4)c(C)c(O)c3c(O)c2C(=O)[C@H]1O[C@H]1C[C@@H](O[C@H]2C[C@@H](O[C@H]3C[C@](C)(O)[C@H](O)[C@@H](C)O3)[C@@H](O)[C@@H](C)O2)[C@H](O)[C@@H](C)O1)[C@@H](O)C(C)=O [EC-7072, mithramycin SK]
- apoptosis of leukemia cells (Annexin V/PI): significantly induces CLL cell apoptosis
